Results on 28 compounds are retold here after ChEMBL document CHEMBL4196003, “The selectivity and bioavailability improvement of novel oral anticoagulants: An overview” (Eur J Med Chem, 2018).

The term pIC50 denotes the negative decadic logarithm of the IC50, by convention in mol/L. Low readings indicate a high IC50, high ones a low IC50. A word on the solubility: it is how much of the substance goes into solution per volume. A high value points to a readily soluble substance. The Ki is a measure of affinity in units of concentration, obtained from inhibition or displacement. Lower therefore signals a stronger hold on the target. The half-life is the time in which the quantity being followed falls by half. A higher half-life goes with slow decline. One may read the pKi as the negative decadic logarithm of the Ki, by convention in mol/L. Read a high pKi as a small Ki.

pIC50, pKi: −log10 of the molar value. Converted amounts (≈) assume the structure as drawn.

In data set [1] the target is T1, Prothrombin (Homo sapiens, UniProt P00734).
Data set [2] concerns the target T2, Coagulation factor X (Homo sapiens, UniProt P00742).
The target in data set [3] is T3, Coagulation factor VII/tissue factor (Homo sapiens, UniProt P08709). In kind it is protein-complex assay.
Another data set relates to Plasma. Format: functional, Homo sapiens.
The next data set in a line: physchem. The note with it: buffer, pH 7.4.
For data set [4] the following is noted: cynomolgus monkey, plasma, iv, 0.4 mg/kg.
Description: Plasma concentration in cynomolgus monkey at 400 ug/kg/min, iv
Data set [5] has as its target T2, Coagulation factor X. This is another data set of the same source.
The target in data set [6] is T4, Trypsin (Homo sapiens, UniProt P07477+P07478+P35030). Format: protein assay.
Description: Inhibition of trypsin (unknown origin)
The nature of another data set: in vivo. The note with it: dog, po, 1 mg/kg.
For data set [7], the target named is T4, Trypsin. Format: protein assay. This is another data set of the same source.
Description: Inhibition of human trypsin assessed as release of p-nitroanilide from chromogenic substrate
For data set [8], the target named is T1, Prothrombin. The source holds these as a separate data set.
For data set [9], the target named is T3, Coagulation factor VII/tissue factor. Format: protein-complex assay. The source holds these as a separate data set.
The conditions of data set [10]: cynomolgus monkey, plasma, iv, 0.06 mg/kg.
Description: Plasma concentration in cynomolgus monkey at 60 ug/kg/min, iv
For data set [11], the target named is T1, Prothrombin. This is another data set of the same source.
Description: Binding affinity to thrombin (unknown origin)

T2 sequence (P00742 41-179 limits assumed): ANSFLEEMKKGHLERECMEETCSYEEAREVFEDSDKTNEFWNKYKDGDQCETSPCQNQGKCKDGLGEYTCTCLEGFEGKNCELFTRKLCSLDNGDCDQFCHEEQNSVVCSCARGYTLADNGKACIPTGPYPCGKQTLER
T2 sequence (P00742 235-488 limits assumed): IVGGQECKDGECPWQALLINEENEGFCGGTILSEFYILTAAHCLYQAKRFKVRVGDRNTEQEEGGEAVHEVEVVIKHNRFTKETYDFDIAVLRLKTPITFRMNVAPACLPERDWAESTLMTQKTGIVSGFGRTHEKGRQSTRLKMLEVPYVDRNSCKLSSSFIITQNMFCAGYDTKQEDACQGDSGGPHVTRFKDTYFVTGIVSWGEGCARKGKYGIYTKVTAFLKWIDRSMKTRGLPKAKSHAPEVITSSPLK
T3 sequence (P08709 61-212 limits assumed): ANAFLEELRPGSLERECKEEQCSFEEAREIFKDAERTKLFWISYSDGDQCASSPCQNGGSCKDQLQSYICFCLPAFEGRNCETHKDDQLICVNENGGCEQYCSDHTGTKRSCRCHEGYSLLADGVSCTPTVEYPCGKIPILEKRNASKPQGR
T3 sequence (P08709 213-466 limits assumed): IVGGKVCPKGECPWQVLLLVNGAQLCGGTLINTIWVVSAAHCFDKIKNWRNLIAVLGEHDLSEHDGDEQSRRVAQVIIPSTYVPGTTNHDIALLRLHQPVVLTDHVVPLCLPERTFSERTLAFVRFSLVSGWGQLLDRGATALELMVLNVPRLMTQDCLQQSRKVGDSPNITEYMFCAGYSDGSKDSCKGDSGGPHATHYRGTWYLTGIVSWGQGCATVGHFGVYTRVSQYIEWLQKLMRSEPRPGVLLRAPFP
T3 sequence (P13726 33-295 partner limits assumed): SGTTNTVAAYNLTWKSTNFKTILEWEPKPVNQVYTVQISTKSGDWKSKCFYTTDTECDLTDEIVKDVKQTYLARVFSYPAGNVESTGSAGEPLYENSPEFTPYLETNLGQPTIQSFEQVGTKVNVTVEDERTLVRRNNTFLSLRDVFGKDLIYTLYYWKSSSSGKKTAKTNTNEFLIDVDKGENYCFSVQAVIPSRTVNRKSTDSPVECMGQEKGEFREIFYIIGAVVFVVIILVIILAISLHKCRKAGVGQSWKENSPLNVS
Description for Plasma: Anticoagulant activity in human plasma assessed as concentration required to double activated partial thromboplastin time
Description for in vivo: Half life in dog at 1 mg/kg, po
Description for physchem: Aqueous solubility at pH 7.4

For the compound `O=c1oc(-c2c(F)cccc2F)nc2cc(C(F)(F)F)ccc12`, the pIC50 against Prothrombin [1] is 3.87; at Coagulation factor X [2] it was 3.76; in data set [3], 5.85.

In the data set on Plasma, `O=C(Cn1c(Cl)cnc(NCC(F)(F)c2cccc[n+]2[O-])c1=O)NCc1ccccc1F` yielded a 2aPTT of 400 nM.

In the case of `O=C(Cn1c(Cl)cnc(NCC(F)(F)c2cccc[n+]2[O-])c1=O)NCc1cc(Cl)ccc1-n1cncn1`, the 2aPTT with Plasma is on record as 200 nM.

In the data set on Plasma, `O=C(Cn1c(Cl)cnc(NCC(F)(F)c2cccc[n+]2[O-])c1=O)NCc1cc(Cl)ccc1-n1cnnn1` showed a 2aPTT of 130 nM.

In the data set with Plasma, `O=C(Cn1c(Cl)cnc(NCC(F)(F)c2cccc[n+]2[O-])c1=O)NCc1ncccc1F` gave a 2aPTT of 540 nM. Besides, the solubility in “physchem” was 44 µg/mL (≈ 93.9 µM).

In data set [4], `CC(C)Nc1nc(Cl)c(-c2cc(N)cc(C(=O)O)c2)n(CC(=O)NCc2ccc(C(=N)N)cc2)c1=O` had a Cp of 107 µg/mL. Also, at Coagulation factor X [5], the pIC50 is under 4.00.

With `O=C(Cn1c(Cl)cnc(NCC(F)(F)c2ccccn2)c1=O)NCc1ncccc1F` [DPOC-4088], in the data set on Plasma, the 2aPTT is listed as 780 nM. Further, at Trypsin [6], the Ki was 202 µM. The amount in solution in “physchem” (solubility) came to 11 µg/mL (≈ 24.3 µM). In “in vivo”, this compound gave a half-life of 6.6 to 9.7 h.

Compound `Cc1cnc(NCCc2ccccn2)c(=O)n1CC(=O)NCc1cc2cc[nH]c2cn1` had a Ki on Trypsin [7] of 200 µM.

Take `O=c1oc(-c2ccccc2F)nc2ncccc12`: the pIC50 was 4.84 against Prothrombin [1], 4.49 on Coagulation factor X [2] and 5.55 in data set [3].

In the case of `N=C(N)NCCC[C@H](NC(=O)[C@H](Cc1cccnc1)NC(=O)[C@H](Cc1ccccc1)NS(=O)(=O)c1ccccc1)C(=O)c1nccs1`, the pIC50 at Prothrombin [8] is 4.00; in data set [9], 6.70.

In the data set with Plasma, `O=C(Cn1c(Cl)cnc(NCC(F)(F)c2ccccn2)c1=O)NCc1cc(Cl)ccc1-n1cncn1` gave a 2aPTT of 170 nM.

In turn, `Cc1cnc(NCC(F)(F)c2ccccn2)c(=O)n1CC(=O)NCc1ncccc1F` registered a 2aPTT in the data set with Plasma of 670 nM. The same compound yielded a Ki at Trypsin [6] of 252 µM.

`Cc1nc(N)ccc1CNC(=O)Cn1c(C)ccc(NS(=O)(=O)Cc2ccccc2)c1=O` [L-374087] yielded a Ki at Trypsin [7] of 3.2 µM.

For the compound `O=c1oc(-c2ccccc2F)nc2nccnc12`, the pIC50 in data set [3] is under 3.70.

Regarding `O=c1oc(-c2c(F)cccc2F)nc2cnccc12`, the pIC50 against Prothrombin [1] is under 3.70; on Coagulation factor X [2], under 3.70; in data set [3], 5.89.

At Trypsin [7], `Cc1cnc(NCCc2ccccc2)c(=O)n1CC(=O)NCc1ccc2[nH]ccc2c1` registered a Ki of over 100 µM.

For the compound `Cc1ccccc1-c1nc2c(cnn2C)c(=O)o1`, the pIC50 is 3.89 at Prothrombin [1], under 3.70 on Coagulation factor X [2] and 4.74 in data set [3].

On to `Cc1cnc(NCCc2ccccc2)c(=O)n1CC(=O)NCc1cc2cc[nH]c2cn1`, for which, on Trypsin [7], the Ki was found to be 95 µM.

In the case of `Cc1cnc(NCCc2ccccn2)c(=O)n1CC(=O)NCc1ccc2[nH]ccc2c1`, the Ki on Trypsin [7] stood at 290 µM.

Regarding `CCSc1ncc2c(=O)oc(-c3ccccc3F)nc2n1`, the pIC50 is under 3.70 on Prothrombin [1], under 3.70 on Coagulation factor X [2] and 4.82 in data set [3].

In turn, `Cc1nc(N)ccc1CNC(=O)Cn1c(C)cnc(NCC(F)(F)c2ccccn2)c1=O` registered a 2aPTT in the data set on Plasma of 200 nM. This compound also displayed a Ki on Trypsin [6] of 0.8 µM.

Compound `Cc1nc(N)ccc1CNC(=O)Cn1c(C)cnc(NCCc2ccccc2)c1=O` [L-375378] returned a Cp in data set [10] of 3 µg/mL.

`O=c1oc(-c2ccccc2F)nc2cnccc12`: the pIC50 against Coagulation factor X [2] was 4.05; in data set [3], 5.59.

With `O=c1oc(-c2c(F)cccc2F)nc2cc([N+](=O)[O-])ccc12`, the pIC50 against Prothrombin [1] is under 3.70; against Coagulation factor X [2], 3.95; in [3] it was 6.09.

On to `N#Cc1cnc(NCC(F)(F)c2ccccn2)c(=O)n1CC(=O)NCc1ncccc1F`, for which the 2aPTT in the data set on Plasma amounted to 410 nM. This compound also displayed a Ki at Trypsin [6] of 213 µM. The half-life in “in vivo” lay within 6.6 to 9.7 h.

Compound `O=C(Cn1c(Cl)cnc(NCC(F)(F)c2ccccn2)c1=O)NCc1cc(Cl)ccc1-n1cnnn1` returned a 2aPTT in the data set with Plasma of 180 nM. At Prothrombin [11], this compound had a pKi of 11.82 to 11.85.

Regarding `CC(C)Nc1ccc(-c2cccc(N)c2)c(CC(=O)NCc2ccc(C(=N)N)cc2)c1F`, the pIC50 at Coagulation factor X [5] is under 4.52.

For `O=C(Cn1c(Cl)cnc(NCC(F)(F)c2cccc[n+]2[O-])c1=O)NCc1ncccc1Cl`, the 2aPTT with Plasma was found to be 470 nM.
